# The source made the active and inactive calls. The rule behind the calls is not given here.
# Experiments:
# [1] = target: T1, Retinoic acid receptor RXR-alpha (Homo sapiens, UniProt P19793); experiment: Displacement of [3H]9cis-RA from human RXRalpha-LBD by competitive binding assay
# T1 sequence (P19793 whole entry): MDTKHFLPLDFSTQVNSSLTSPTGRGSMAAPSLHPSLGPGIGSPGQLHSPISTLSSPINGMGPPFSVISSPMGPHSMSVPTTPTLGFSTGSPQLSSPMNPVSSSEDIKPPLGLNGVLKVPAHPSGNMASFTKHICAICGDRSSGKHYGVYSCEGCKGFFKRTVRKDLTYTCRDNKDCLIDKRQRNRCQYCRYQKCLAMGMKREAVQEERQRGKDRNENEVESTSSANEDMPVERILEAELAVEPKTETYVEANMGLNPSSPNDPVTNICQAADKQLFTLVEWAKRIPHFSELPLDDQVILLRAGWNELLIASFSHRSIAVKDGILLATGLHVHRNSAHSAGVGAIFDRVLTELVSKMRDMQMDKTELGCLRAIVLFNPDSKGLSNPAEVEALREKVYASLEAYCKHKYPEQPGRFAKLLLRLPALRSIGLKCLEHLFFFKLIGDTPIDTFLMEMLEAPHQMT
# [2] = target: T1, Retinoic acid receptor RXR-alpha; experiment: Antagonist activity at human RXRalpha expressed in COS-7 cells assessed as suppression of NEt-TMN-induced receptor transactivation by luciferase reporter gene assay; type: cell-based; conditions: read-out: pA2 (converted)
# [3] = target: T2, Retinoic acid receptor RXR-alpha (Homo sapiens) (UniProt P19793); experiment: Displacement of 6-(Ethyl-{5-isobutoxy-4-isopropyl-2-[(10-oxo-2,3,5,6-tetrahydro-1H,4H,10H-11-oxa-3a-aza-benzo[de]anthracene-9-carbonyl)-amino]-phenyl}-amino)-nicotinic acid from human RXRalpha-LBD by fluorescence binding assay
# T2 sequence (whole entry): T1 sequence (P19793 whole entry)
Ki [1],Kb [2],SMILES,Activity [3]
425 nM,47.9 nM,CCN(c1ccc(C(=O)O)cn1)c1cc(OCC(C)C)c(C(C)C)cc1NC(=O)c1ccccc1,
,,CC/C=C\C/C=C\C/C=C\C/C=C\C/C=C\C/C=C\CCC(=O)O,Active
,,CCCCC/C=C\C/C=C\C/C=C\C/C=C\CCCC(=O)O,Active
,,C=CCc1ccc(O)c(-c2ccc(O)c(CC=C)c2)c1,Active
,,CC/C=C\C/C=C\C/C=C\C/C=C\C/C=C\CCCC(=O)O,Active
